Source: US20160272617A1, “SUBSTITUTED PHENYLALANINE DERIVATIVES” (BAYER PHARMA AKTIENGESELLSCHAFT, priority 2013, published 2016)
Counter-ions that a name gives are not always drawn.

Experiments:
[1] = test system: human and animal plasma; assay: Determination of anticoagulatory activity: activated partial thromboplastin time (aPTT) in plasma; settings: concentration of test substance which brings about a 1.5-fold extension of the aPTT; plasma species not given
Summary of the method: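 Citrated plasma (1:9, 0.11 M citrate; 4000 g, 15 min) from human or animal blood incubated with test compound and cephalin/kaolin PTT reagent for 3 min at 37° C.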

[2] = target: T1, human factor XIa (Homo sapiens, UniProt P03951); assay: Measurement of FXIa inhibition (fluorogenic peptide substrate Boc-Glu(OBzl)-Ala-Arg-AMC); type: biochemical; settings: factor XIa from Kordia, 15 min preincubation, 30 min at 22° C., fluorescence
T1 construct: purchased Kordia
T1 sequence (P03951 388-625 limits assumed): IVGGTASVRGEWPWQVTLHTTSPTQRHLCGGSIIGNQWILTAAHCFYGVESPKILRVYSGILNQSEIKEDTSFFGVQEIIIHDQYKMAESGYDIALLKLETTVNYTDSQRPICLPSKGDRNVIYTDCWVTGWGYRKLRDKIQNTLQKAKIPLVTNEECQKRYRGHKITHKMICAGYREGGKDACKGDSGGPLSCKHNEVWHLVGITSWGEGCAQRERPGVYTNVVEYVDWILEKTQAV
T1 sequence (P03951 19-387 partner limits assumed): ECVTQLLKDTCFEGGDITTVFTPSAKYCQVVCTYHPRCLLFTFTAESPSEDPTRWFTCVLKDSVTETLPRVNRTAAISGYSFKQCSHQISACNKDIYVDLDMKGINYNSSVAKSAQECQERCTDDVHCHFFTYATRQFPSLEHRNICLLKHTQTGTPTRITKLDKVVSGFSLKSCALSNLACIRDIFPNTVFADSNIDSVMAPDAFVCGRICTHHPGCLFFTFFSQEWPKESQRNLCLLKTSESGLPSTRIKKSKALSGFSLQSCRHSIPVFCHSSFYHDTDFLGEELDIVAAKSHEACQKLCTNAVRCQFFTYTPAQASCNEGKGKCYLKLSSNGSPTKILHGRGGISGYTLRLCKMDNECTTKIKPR
Summary of the method: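 Released AMC fluorescence (360/460 nm) read after 30 min at 22 °C. The reaction was started with Boc-Glu(OBzl)-Ala-Arg-AMC (10 μM stock) after a 15 min preincubation of the enzyme (0.45 nM stock) with compound (final 50 μM to 0.00013 μM).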

SMILES | aPTT [1] [µmol/L] | IC50 [2] [nM]
Cc1cc(C(=O)NC2CCNCC2)ccc1-c1ccc(C[C@H](NC(=O)[C@H]2CC[C@H](CN)CC2)C(=O)Nc2ccc3nc(C(F)(F)F)[nH]c3c2)cc1 [Example 52, 4′-[(2S)-2-({[trans-4-(Aminomethyl)cyclohexyl]carbonyl}amino)-3-oxo-3-{[2-(trifluoromethyl)-1H-benzimidazol-6-yl]amino}propyl]-2-methyl-N-(piperidin-4-yl)biphenyl-4-carboxamide hydrochloride] | 0.2 | 14
Cc1cc(C(=O)NC2CCNCC2)ccc1-c1ccc(C[C@H](NC(=O)[C@H]2CC[C@H](CN)CC2)C(=O)Nc2ccc3[nH]c(=O)[nH]c3c2)cc1 [Example 53, 4′-{(2S)-2-({[trans-4-(Aminomethyl)cyclohexyl]carbonyl}amino)-3-oxo-3-[(2-oxo-2,3-dihydro-1H-benzimidazol-5-yl)amino]propyl}-2-methyl-N-(piperidin-4-yl)biphenyl-4-carboxamide hydrochloride] | 0.16 | 16
COCc1nnc(-c2ccc(NC(=O)[C@H](Cc3ccc(-c4ccc(C(=O)NC5CCNCC5)cc4C)cc3)NC(=O)[C@H]3CC[C@H](CN)CC3)cc2)[nH]1 [Example 54, 4′-[(2S)-2-({[trans-4-(Aminomethyl)cyclohexyl]carbonyl}amino)-3-({4-[3-(methoxymethyl)-4H-1,2,4-triazol-5-yl]phenyl}amino)-3-oxopropyl]-2-methyl-N-(piperidin-4-yl)biphenyl-4-carboxamide hydrochloride] | 0.24 | 16
Cc1cc(C(=O)NC2CCNCC2)ccc1-c1ccc(C[C@H](NC(=O)[C@H]2CC[C@H](CN)CC2)C(=O)Nc2ccc3[nH]c(=O)oc3c2)cc1 [Example 55, 4′-{(2S)-2-({[trans-4-(Aminomethyl)cyclohexyl]carbonyl}amino)-3-oxo-3-[(2-oxo-2,3-dihydro-1,3-benzoxazol-6-yl)amino]propyl}-2-methyl-N-(piperidin-4-yl)biphenyl-4-carboxamide hydrochloride] | 0.37 | 41
Cc1nnc(-c2ccc(NC(=O)[C@H](Cc3ccc(-c4ccc(C(=O)NC5CCNCC5)cc4C)cc3)NC(=O)[C@H]3CC[C@H](CN)CC3)cc2)[nH]1 [Example 56, 4′-[(2S)-2-({[trans-4-(Aminomethyl)cyclohexyl]carbonyl}amino)-3-{[4-(3-methyl-4H-1,2,4-triazol-5-yl)phenyl]amino}-3-oxopropyl]-2-methyl-N-(piperidin-4-yl)biphenyl-4-carboxamide hydrochloride] | 0.44 | 48
Cc1cc(C(=O)NC2CCNCC2)ccc1-c1ccc(C[C@H](NC(=O)[C@H]2CC[C@H](CN)CC2)C(=O)Nc2ccc3[nH]c(C(F)(F)C(F)(F)F)nc3c2)cc1 [Example 57, 4′-[(2S)-2-({[trans-4-(Aminomethyl)cyclohexyl]carbonyl}amino)-3-oxo-3-{[2-(pentafluoroethyl)-1H-benzimidazol-5-yl]amino}propyl]-2-methyl-N-(piperidin-4-yl)biphenyl-4-carboxamide hydrochloride] | 0.44 | 8.4
Cc1cc(C(=O)NC2CCNCC2)ccc1-c1ccc(C[C@H](NC(=O)[C@H]2CC[C@H](CN)CC2)C(=O)Nc2ccc3nc(-c4cccnc4)[nH]c3c2)cc1 [Example 59, 4′-[(2S)-2-({[trans-4-(Aminomethyl)cyclohexyl]carbonyl}amino)-3-oxo-3-{[2-(pyridin-3-yl)-1H-benzimidazol-6-yl]amino}propyl]-2-methyl-N-(piperidin-4-yl)biphenyl-4-carboxamide hydrochloride] | 0.51 | 34
Cc1cc(C(=O)NC2CCNCC2)ccc1-c1ccc(C[C@H](NC(=O)[C@H]2CC[C@H](CN)CC2)C(=O)Nc2ccc3nc(-n4cccn4)[nH]c3c2)cc1 [Example 60, 4′-[(2S)-2-({[trans-4-(Aminomethyl)cyclohexyl]carbonyl}amino)-3-oxo-3-{[2-(1H-pyrazol-1-yl)-1H-benzimidazol-6-yl]amino}propyl]-2-methyl-N-(piperidin-4-yl)biphenyl-4-carboxamide hydrochloride] | 0.63 | 45
Cc1cc(C(=O)NC2CCNCC2)ccc1-c1ccc(C[C@H](NC(=O)[C@H]2CC[C@H](CN)CC2)C(=O)Nc2ccc(-c3nn[nH]n3)cc2)cc1F [Example 61, 4′-[(2S)-2-({[trans-4-(Aminomethyl)cyclohexyl]carbonyl}amino)-3-oxo-3-{[4-(2H-tetrazol-5-yl)phenyl]amino}propyl]-2′-fluoro-2-methyl-N-(piperidin-4-yl)biphenyl-4-carboxamide hydrochloride] | 0.07 | 3.2
NC[C@H]1CC[C@H](C(=O)N[C@@H](Cc2ccc(-c3ccc(C(=O)NC4CC4)cc3)cc2)C(=O)Nc2ccc(-c3nnn[nH]3)cc2)CC1 [Example 62, 4′-[(2S)-2-({[trans-4-(Aminomethyl)cyclohexyl]carbonyl}amino)-3-oxo-3-{[4-(1H-tetrazol-5-yl)phenyl]amino}propyl]-N-cyclopropylbiphenyl-4-carboxamide hydrochloride] | 0.53 | 2.9
Cc1cc(C(=O)NC2CCC(N(C)C)CC2)ccc1-c1ccc(C[C@H](NC(=O)[C@H]2CC[C@H](CN)CC2)C(=O)Nc2ccc(-c3nn[nH]n3)c(F)c2)cc1 (stereo partly drawn) [Example 63, 4′-[(2S)-2-({[trans-4-(Aminomethyl)cyclohexyl]carbonyl}amino)-3-{[3-fluoro-4-(2H-tetrazol-5-yl)phenyl]amino}-3-oxopropyl]-N-[4-(dimethylamino)cyclohexyl]-2-methylbiphenyl-4-carboxamide hydrochloride] | 0.01 | 2.1
Cc1cc(C(=O)NC2CCNCC2)ccc1-c1ccc(C[C@H](NC(=O)[C@H]2CC[C@H](CN)CC2)C(=O)Nc2ccc3[nH]c(C(F)(F)C(F)(F)C(F)(F)C(=O)O)nc3c2)cc1 [Example 65, 4-[5-({(2S)-2-({[trans-4-(Aminomethyl)cyclohexyl]carbonyl}amino)-3-[2′-methyl-4′-(piperidin-4-ylcarbamoyl)biphenyl-4-yl]propanoyl}amino)-1H-benzimidazol-2-yl]-2,2,3,3,4,4-hexafluorobutanoic acid hydrochloride] | 0.48 | 26
Cc1cc(C(=O)NC2CCN(C)CC2)ccc1-c1ccc(C[C@H](NC(=O)[C@H]2CC[C@H](CN)CC2)C(=O)Nc2ccc3[nH]c(C(F)(F)F)nc3c2)cc1 [Example 76, 4′-[(2S)-2-({[trans-4-(Aminomethyl)cyclohexyl]carbonyl}amino)-3-oxo-3-{[2-(trifluoromethyl)-1H-benzimidazol-5-yl]amino}propyl]-2-methyl-N-(1-methylpiperidin-4-yl)biphenyl-4-carboxamide hydrochloride] | 0.37 | 25
Cc1cc(C(=O)NC2CCC(N(C)C)CC2)ccc1-c1ccc(C[C@H](NC(=O)[C@H]2CC[C@H](CN)CC2)C(=O)Nc2ccc3[nH]c(C(F)(F)F)nc3c2)cc1 (stereo partly drawn) [Example 77, 4′-[(2S)-2-({[trans-4-(Aminomethyl)cyclohexyl]carbonyl}amino)-3-oxo-3-{[2-(trifluoromethyl)-1H-benzimidazol-5-yl]amino}propyl]-N-[4-(dimethylamino)cyclohexyl]-2-methylbiphenyl-4-carboxamide hydrochloride] | 0.22 | 8.4
Cc1cc(C(=O)N[C@H]2CC[C@H](N(C)C)CC2)ccc1-c1ccc(C[C@H](NC(=O)[C@H]2CC[C@H](CN)CC2)C(=O)Nc2ccc3[nH]c(C(F)(F)C(F)(F)F)nc3c2)cc1 [Example 78, 4′-[(2S)-2-({[trans-4-(Aminomethyl)cyclohexyl]carbonyl}amino)-3-oxo-3-{[2-(pentafluoroethyl)-1H-benzimidazol-5-yl]amino}propyl]-N-[4-(dimethylamino)cyclohexyl]-2-methylbiphenyl-4-carboxamide hydrochloride] | 0.38 | 12
Cc1cc(C(=O)N[C@H]2CC[C@H](N)CC2)ccc1-c1ccc(C[C@H](NC(=O)[C@H]2CC[C@H](CN)CC2)C(=O)Nc2ccc3[nH]c(C(F)(F)C(F)(F)F)nc3c2)cc1 [Example 79, N-(trans-4-Aminocyclohexyl)-4′-[(2S)-2-({[trans-4-(aminomethyl)cyclohexyl]carbonyl}amino)-3-oxo-3-{[2-(pentafluoroethyl)-1H-benzimidazol-5-yl]amino}propyl]-2-methylbiphenyl-4-carboxamide hydrochloride] | 0.21 | 12
Cc1cc(C(=O)N[C@@H]2CCNC2)ccc1-c1ccc(C[C@H](NC(=O)[C@H]2CC[C@H](CN)CC2)C(=O)Nc2ccc3[nH]c(C(F)(F)C(F)(F)F)nc3c2)cc1 [Example 80, 4′-[(2S)-2-({[trans-4-(Aminomethyl)cyclohexyl]carbonyl}amino)-3-oxo-3-{[2-(pentafluoroethyl)-1H-benzimidazol-5-yl]amino}propyl]-2-methyl-N-[(3R)-pyrrolidin-3-yl]biphenyl-4-carboxamide hydrochloride] | 0.41 | 17
Cc1cc(C(=O)NCCCN(C)C)ccc1-c1ccc(C[C@H](NC(=O)[C@H]2CC[C@H](CN)CC2)C(=O)Nc2ccc3[nH]c(C(F)(F)C(F)(F)F)nc3c2)cc1 [Example 81, 4′-[(2S)-2-({[trans-4-(Aminomethyl)cyclohexyl]carbonyl}amino)-3-oxo-3-{[2-(pentafluoroethyl)-1H-benzimidazol-5-yl]amino}propyl]-N-[3-(dimethylamino)propyl]-2-methylbiphenyl-4-carboxamide hydrochloride] | 0.41 | 22
